According to ChEMBL document CHEMBL5212743, “Selectivity Literature for EUbOPEN Chemogenomics Library wave 3” (2023):

What was measured:
[1] = target: T1, Alpha-1D adrenergic receptor (Homo sapiens, UniProt P25100); test: Selectivity interaction (GPCR panel (PDSP screen)) EUB0000545a ADRA1D
T1 sequence (P25100 whole entry): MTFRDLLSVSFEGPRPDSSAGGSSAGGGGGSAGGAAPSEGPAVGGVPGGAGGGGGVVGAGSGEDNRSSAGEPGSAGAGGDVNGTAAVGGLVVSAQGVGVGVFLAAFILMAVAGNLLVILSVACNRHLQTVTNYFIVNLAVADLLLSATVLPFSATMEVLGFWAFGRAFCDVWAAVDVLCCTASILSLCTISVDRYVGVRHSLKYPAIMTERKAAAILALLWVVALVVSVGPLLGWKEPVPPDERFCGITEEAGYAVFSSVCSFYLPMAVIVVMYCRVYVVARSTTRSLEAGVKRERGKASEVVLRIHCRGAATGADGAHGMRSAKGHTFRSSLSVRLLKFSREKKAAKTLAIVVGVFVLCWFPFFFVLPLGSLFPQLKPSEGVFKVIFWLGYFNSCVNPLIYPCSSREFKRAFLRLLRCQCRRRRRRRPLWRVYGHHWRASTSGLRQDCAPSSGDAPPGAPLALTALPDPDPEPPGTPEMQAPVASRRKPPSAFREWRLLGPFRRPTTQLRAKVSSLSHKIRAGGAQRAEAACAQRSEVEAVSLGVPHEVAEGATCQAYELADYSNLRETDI

[2] = target: Dual specificity tyrosine-phosphorylation-regulated kinase 1B (Homo sapiens, UniProt Q9Y463); test: Selectivity interaction (KinomeScan (DiscoverX)) EUB0000545a DYRK1B; conditions: at 1 µM
Focal adhesion kinase 1 = Focal adhesion kinase 1 (Homo sapiens, UniProt Q05397); test: Selectivity interaction (KinomeScan (DiscoverX)) EUB0000545a PTK2; conditions: at 1 µM
[3] = target: Rho-associated protein kinase 1 (Homo sapiens) (UniProt Q13464); test: Selectivity interaction (KinomeScan (DiscoverX)) EUB0000545a ROCK1; conditions: at 1 µM
D(2) dopamine receptor = D(2) dopamine receptor (Homo sapiens, UniProt P14416); test: Selectivity interaction (GPCR panel (PDSP screen)) EUB0000728a DRD2; conditions: at 10 µM
[4] = target: Calcium/calmodulin-dependent protein kinase type 1B (Homo sapiens, UniProt Q6P2M8); test: Selectivity interaction (KinomeScan (DiscoverX)) EUB0000728a PNCK; conditions: at 1 µM
Collagenase 3 = Collagenase 3 (Homo sapiens, UniProt P45452); test: Selectivity interaction (Lead profiling screen (Eurofins, enzymes, transporters, GPCRs, ion chanels)) EUB0000728a MMP13
Stromelysin-2 = Stromelysin-2 (Homo sapiens, UniProt P09238); test: Selectivity interaction (Lead profiling screen (Eurofins, enzymes, transporters, GPCRs, ion chanels)) EUB0000728a MMP10
[5] = target: Matrix metalloproteinase-14 (Homo sapiens, UniProt P50281); test: Selectivity interaction (Lead profiling screen (Eurofins, enzymes, transporters, GPCRs, ion chanels)) EUB0000728a MMP14
[6] = target: Matrix metalloproteinase-16 (Homo sapiens, UniProt P51512); test: Selectivity interaction (Lead profiling screen (Eurofins, enzymes, transporters, GPCRs, ion chanels)) EUB0000728a MMP16
[7] = target: 72 kDa type IV collagenase (Homo sapiens, UniProt P08253); test: Selectivity interaction (Lead profiling screen (Eurofins, enzymes, transporters, GPCRs, ion chanels)) EUB0000728a MMP2
Stromelysin-1 = Stromelysin-1 (Homo sapiens, UniProt P08254); test: Selectivity interaction (Lead profiling screen (Eurofins, enzymes, transporters, GPCRs, ion chanels)) EUB0000728a MMP3
Matrilysin = target: T2, Matrilysin (Homo sapiens, UniProt P09237); test: Selectivity interaction (Lead profiling screen (Eurofins, enzymes, transporters, GPCRs, ion chanels)) EUB0000728a MMP7
T2 sequence (P09237 whole entry): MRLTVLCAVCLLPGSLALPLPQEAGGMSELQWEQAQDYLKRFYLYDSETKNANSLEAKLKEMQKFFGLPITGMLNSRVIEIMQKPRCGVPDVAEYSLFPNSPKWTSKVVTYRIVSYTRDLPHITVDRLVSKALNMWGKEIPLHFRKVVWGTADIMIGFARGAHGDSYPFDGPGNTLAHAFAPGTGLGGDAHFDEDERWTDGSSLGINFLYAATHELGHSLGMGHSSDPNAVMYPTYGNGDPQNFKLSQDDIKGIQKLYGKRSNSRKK

Neutrophil collagenase = Neutrophil collagenase (Homo sapiens, UniProt P22894); test: Selectivity interaction (Lead profiling screen (Eurofins, enzymes, transporters, GPCRs, ion chanels)) EUB0000728a MMP8
[8] = target: Matrix metalloproteinase-9 (Homo sapiens, UniProt P14780); test: Selectivity interaction (Lead profiling screen (Eurofins, enzymes, transporters, GPCRs, ion chanels)) EUB0000728a MMP9
[9] = target: Epidermal growth factor receptor (Homo sapiens, UniProt P00533); test: Selectivity interaction (KinomeScan (DiscoverX)) EUB0000728a EGFR; conditions: at 1 µM
[10] = target: Non-receptor tyrosine-protein kinase TYK2 (Homo sapiens, UniProt P29597); test: Selectivity interaction (KinomeScan (DiscoverX)) EUB0000728a TYK2; conditions: at 1 µM
D(1A) dopamine receptor = D(1A) dopamine receptor (Homo sapiens, UniProt P21728); test: Selectivity interaction (GPCR panel (PDSP screen)) EUB0000335a DRD1
[11] = target: Cyclin-dependent kinase 3 (Homo sapiens) (UniProt Q00526); test: Selectivity interaction (KinomeScan (DiscoverX)) EUB0000335a CDK3; conditions: at 1 µM
[12] = target: Mitotic checkpoint serine/threonine-protein kinase BUB1 (Homo sapiens) (UniProt O43683); test: Selectivity interaction (KinomeScan (DiscoverX)) EUB0000335a BUB1; conditions: at 1 µM
[13] = target: Serine/threonine-protein kinase WNK2 (Homo sapiens) (UniProt Q9Y3S1); test: Selectivity interaction (KinomeScan (DiscoverX)) EUB0000335a WNK2; conditions: at 1 µM
[14] = target: T3, Mitogen-activated protein kinase kinase kinase 13 (Homo sapiens) (UniProt O43283); test: Selectivity interaction (KinomeScan (DiscoverX)) EUB0000335a MAP3K13; conditions: at 1 µM
T3 sequence (whole entry): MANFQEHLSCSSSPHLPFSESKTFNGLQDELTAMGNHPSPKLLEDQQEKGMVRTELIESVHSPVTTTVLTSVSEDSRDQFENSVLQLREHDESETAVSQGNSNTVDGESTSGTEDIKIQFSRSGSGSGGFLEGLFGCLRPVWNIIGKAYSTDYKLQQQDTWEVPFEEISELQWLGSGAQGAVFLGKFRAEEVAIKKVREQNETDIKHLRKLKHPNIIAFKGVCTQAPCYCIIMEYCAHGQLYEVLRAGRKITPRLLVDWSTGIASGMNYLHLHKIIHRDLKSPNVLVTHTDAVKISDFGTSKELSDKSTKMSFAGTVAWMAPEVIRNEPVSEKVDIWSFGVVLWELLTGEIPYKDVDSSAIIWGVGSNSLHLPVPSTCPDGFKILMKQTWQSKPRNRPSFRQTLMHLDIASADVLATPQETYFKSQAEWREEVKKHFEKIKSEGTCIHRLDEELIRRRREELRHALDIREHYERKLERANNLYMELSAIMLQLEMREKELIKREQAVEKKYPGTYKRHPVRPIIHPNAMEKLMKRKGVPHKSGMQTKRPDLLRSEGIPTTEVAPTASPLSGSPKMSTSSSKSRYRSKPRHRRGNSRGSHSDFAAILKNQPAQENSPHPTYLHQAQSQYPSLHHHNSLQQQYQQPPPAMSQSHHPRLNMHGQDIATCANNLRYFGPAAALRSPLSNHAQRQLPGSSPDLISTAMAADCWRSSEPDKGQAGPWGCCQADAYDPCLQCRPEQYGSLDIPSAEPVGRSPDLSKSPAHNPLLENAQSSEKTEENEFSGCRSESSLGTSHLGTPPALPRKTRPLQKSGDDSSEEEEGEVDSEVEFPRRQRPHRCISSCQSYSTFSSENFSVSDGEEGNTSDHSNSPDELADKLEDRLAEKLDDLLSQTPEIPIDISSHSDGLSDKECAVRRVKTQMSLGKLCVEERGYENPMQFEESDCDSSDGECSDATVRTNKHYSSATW

[15] = target: Receptor-interacting serine/threonine-protein kinase 1 (Homo sapiens) (UniProt Q13546); test: Selectivity interaction (KinomeScan (DiscoverX)) EUB0000335a RIPK1; conditions: at 1 µM
Chain of Receptor-interacting serine/threonine-protein kinase 1 (Homo sapiens) (Q13546 whole entry): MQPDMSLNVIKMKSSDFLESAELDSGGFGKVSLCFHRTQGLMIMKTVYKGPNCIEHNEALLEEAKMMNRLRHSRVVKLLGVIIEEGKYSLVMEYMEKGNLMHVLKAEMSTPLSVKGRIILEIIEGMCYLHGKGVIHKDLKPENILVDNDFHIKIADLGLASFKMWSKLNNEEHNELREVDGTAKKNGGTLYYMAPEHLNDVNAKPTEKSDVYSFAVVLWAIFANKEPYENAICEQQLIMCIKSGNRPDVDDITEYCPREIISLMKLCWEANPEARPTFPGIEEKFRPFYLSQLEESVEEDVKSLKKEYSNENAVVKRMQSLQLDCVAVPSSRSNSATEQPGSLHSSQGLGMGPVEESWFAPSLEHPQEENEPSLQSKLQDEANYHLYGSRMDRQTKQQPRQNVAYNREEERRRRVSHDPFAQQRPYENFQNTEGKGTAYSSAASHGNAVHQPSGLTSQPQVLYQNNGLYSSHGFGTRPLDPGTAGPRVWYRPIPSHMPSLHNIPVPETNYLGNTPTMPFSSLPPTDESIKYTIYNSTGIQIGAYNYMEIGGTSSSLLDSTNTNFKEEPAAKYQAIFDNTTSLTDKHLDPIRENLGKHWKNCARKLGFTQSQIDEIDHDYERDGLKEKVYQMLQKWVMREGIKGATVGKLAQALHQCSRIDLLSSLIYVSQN

Chain of Stromelysin-1 (P08254 whole entry): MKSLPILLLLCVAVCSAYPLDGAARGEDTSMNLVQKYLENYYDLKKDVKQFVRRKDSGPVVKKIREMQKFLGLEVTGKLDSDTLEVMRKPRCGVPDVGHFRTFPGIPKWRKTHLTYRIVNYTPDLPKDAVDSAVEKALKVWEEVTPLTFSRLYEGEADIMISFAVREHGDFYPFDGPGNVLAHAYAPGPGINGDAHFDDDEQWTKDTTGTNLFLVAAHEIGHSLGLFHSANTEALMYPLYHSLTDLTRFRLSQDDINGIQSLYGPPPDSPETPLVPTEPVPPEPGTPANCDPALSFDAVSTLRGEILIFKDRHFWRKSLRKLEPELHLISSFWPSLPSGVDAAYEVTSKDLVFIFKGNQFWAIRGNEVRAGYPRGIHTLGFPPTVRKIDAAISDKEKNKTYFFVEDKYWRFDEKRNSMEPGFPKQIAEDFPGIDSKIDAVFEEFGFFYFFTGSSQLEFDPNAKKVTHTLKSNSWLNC
Chain of Matrix metalloproteinase-9 (P14780 whole entry): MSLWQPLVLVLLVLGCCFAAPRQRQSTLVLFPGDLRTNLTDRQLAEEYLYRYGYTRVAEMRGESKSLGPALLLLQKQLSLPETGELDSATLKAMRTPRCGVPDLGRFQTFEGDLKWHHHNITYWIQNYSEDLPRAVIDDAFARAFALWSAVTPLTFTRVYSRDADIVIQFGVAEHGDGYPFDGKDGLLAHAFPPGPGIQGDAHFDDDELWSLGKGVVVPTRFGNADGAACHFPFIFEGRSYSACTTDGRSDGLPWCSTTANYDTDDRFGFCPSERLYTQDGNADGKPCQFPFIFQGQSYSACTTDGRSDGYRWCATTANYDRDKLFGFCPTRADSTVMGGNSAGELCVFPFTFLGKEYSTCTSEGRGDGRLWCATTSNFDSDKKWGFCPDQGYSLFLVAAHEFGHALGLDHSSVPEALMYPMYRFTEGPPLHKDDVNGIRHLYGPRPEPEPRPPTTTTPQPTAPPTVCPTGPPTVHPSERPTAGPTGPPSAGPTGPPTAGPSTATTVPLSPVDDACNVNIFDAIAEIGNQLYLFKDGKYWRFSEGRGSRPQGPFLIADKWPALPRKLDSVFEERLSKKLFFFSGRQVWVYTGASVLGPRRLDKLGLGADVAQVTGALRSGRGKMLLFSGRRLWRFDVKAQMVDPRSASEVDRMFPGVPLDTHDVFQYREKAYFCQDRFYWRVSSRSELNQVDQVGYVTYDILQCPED
Chain of D(2) dopamine receptor (P14416 whole entry): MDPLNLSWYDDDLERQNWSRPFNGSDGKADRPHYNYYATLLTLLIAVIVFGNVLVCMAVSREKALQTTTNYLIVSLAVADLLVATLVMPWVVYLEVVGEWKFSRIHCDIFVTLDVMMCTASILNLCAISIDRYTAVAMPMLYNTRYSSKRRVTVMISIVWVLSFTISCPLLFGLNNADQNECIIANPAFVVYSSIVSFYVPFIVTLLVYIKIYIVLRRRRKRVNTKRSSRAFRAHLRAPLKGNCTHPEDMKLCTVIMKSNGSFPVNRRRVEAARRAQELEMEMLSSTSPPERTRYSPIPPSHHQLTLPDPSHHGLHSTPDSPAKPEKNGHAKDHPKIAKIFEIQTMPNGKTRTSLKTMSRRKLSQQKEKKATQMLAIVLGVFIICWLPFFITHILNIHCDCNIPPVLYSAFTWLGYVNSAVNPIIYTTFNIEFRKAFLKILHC
Chain of Mitotic checkpoint serine/threonine-protein kinase BUB1 (Homo sapiens) (O43683 whole entry, looked up): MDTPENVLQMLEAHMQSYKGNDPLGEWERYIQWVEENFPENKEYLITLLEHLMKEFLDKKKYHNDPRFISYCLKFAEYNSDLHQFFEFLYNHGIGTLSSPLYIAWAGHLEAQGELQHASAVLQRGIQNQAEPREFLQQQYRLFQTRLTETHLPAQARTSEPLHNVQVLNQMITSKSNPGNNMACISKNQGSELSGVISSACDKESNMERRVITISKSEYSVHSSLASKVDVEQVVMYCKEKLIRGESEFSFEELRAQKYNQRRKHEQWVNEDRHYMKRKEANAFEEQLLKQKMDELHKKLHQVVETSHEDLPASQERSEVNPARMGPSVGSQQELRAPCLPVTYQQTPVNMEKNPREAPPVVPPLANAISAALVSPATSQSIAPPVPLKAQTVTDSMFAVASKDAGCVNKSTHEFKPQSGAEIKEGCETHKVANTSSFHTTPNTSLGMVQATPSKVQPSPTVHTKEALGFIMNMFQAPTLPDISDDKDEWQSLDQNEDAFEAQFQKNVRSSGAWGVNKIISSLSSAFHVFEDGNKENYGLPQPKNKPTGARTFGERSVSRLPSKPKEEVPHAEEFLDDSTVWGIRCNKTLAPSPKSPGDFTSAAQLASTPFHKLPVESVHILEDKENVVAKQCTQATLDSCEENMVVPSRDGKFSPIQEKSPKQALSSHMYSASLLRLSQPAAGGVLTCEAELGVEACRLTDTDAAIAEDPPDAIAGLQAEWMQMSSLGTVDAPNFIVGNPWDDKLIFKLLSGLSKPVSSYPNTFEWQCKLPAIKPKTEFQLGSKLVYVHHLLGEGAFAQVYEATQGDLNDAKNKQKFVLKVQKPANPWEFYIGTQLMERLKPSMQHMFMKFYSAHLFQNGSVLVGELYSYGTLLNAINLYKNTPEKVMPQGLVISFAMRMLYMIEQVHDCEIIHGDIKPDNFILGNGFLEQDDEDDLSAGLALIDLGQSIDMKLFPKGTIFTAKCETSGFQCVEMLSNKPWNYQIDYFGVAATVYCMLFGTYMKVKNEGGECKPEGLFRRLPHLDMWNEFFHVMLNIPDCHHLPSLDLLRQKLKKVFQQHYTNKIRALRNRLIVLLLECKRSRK
Chain of Non-receptor tyrosine-protein kinase TYK2 (P29597 whole entry): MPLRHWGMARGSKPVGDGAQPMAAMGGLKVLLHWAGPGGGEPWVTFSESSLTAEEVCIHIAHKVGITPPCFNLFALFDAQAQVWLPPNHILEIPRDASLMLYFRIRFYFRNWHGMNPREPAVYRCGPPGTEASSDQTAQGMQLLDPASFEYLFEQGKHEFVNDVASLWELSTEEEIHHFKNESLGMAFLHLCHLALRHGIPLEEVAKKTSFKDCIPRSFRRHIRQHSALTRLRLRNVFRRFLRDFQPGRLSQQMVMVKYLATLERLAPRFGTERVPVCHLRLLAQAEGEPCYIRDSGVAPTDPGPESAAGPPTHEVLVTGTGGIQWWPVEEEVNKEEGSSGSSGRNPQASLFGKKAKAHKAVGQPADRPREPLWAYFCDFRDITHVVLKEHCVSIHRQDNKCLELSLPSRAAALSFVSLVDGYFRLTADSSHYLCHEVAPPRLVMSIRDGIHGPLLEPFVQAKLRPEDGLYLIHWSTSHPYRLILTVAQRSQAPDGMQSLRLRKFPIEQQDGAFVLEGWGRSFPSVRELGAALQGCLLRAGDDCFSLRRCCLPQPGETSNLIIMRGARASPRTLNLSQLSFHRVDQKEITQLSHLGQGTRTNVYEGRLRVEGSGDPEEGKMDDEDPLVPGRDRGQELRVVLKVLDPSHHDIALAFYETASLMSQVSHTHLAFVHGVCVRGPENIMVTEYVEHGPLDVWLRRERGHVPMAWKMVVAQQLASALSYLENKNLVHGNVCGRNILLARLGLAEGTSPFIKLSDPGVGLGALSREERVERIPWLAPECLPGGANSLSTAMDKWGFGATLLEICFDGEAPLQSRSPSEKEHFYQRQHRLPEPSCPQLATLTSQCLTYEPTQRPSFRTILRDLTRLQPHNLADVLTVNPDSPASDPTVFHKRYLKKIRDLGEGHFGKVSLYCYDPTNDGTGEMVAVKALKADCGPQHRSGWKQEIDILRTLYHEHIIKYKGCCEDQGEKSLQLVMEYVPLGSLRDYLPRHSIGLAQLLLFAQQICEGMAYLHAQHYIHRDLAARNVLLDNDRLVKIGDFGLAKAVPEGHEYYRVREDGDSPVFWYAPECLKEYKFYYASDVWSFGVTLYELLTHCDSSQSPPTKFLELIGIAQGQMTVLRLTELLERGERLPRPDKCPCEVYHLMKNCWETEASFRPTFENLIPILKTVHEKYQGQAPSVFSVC
Chain of D(1A) dopamine receptor (P21728 whole entry): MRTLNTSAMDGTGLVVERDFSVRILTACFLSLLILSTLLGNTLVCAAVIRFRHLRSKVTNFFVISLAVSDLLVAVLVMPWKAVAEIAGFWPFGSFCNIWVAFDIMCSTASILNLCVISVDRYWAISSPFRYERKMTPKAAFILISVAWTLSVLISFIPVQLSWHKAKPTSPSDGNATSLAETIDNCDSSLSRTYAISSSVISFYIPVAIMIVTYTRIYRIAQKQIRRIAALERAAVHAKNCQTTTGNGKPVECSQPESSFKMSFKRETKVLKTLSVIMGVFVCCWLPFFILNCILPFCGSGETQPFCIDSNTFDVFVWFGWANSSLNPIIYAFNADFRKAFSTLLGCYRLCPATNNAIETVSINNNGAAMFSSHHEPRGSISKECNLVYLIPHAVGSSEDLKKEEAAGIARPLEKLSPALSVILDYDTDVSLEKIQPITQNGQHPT

**Q.** Which Ki [1] does the source give for `CC(=O)N1CCC(c2ccc(C(=O)NC3=NCCN3)cc2C(F)(F)F)CC1` [BI 0054] here?
**A.** > 10000 nM

**Q.** And the % of control [2]?
**A.** 37%

**Q.** What about the % of control (Focal adhesion kinase 1) of the same molecule?
**A.** 17%

**Q.** What about the % of control [3] of the same molecule?
**A.** 0.5%

**Q.** For `O=C(O)[C@H]1[C@H](Cn2nnc3ccccc3c2=O)CC[C@@H]1C(=O)c1ccc(OCCC2CCOCC2)cc1` [BAY-7598], which % of inhibition (D(2) dopamine receptor) is on record?
**A.** 30%

**Q.** What about the % of control [4] of the same molecule?
**A.** 46%

**Q.** And the IC50 (Collagenase 3)?
**A.** 67 nM

**Q.** And the IC50 (Stromelysin-2)?
**A.** 13 nM

**Q.** What about the IC50 [5] of the same molecule?
**A.** 250 nM

**Q.** And the IC50 [6]?
**A.** 940 nM

**Q.** What about the IC50 [7] of the same molecule?
**A.** 44 nM

**Q.** And the IC50 (Stromelysin-1)?
**A.** 360 nM

**Q.** And the IC50 (Matrilysin)?
**A.** 600 nM

**Q.** What about the IC50 (Neutrophil collagenase) of the same molecule?
**A.** 15 nM

**Q.** What about the IC50 [8] of the same molecule?
**A.** 460 nM

**Q.** What about the % of control [9] of the same molecule?
**A.** 40%

**Q.** What about the % of control [10] of the same molecule?
**A.** 41%

**Q.** With `O=C(NCc1ncc(C(F)(F)F)cc1Cl)c1ccc2c(c1)C1(CCS(=O)(=O)CC1)[C@@H](C1CC1)N2S(=O)(=O)c1ccc(F)cc1` [BAY-786] as the molecule, how does the Ki (D(1A) dopamine receptor) read?
**A.** > 10000 nM

**Q.** What about the % of control [11] of the same molecule?
**A.** 41%

**Q.** And the % of control [12]?
**A.** 1.9%

**Q.** And the % of control [13]?
**A.** 0%

**Q.** And the % of control [14]?
**A.** 0%

**Q.** What about the % of control [15] of the same molecule?
**A.** 30%
